Assays:
Test in all cases: relative viability (nuclei count vs DMSO), 5 days (fraction); higher = more cells survive
Linifanib + Trametinib = compound: Cc1ccc(F)c(NC(=O)Nc2ccc(-c3cccc4[nH]nc(N)c34)cc2)c1 [Linifanib] + CC(=O)Nc1cccc(-n2c(=O)n(C3CC3)c(=O)c3c(Nc4ccc(I)cc4F)n(C)c(=O)c(C)c32)c1 [Trametinib] (partner 0.02 µM)
Summary of the method: (§1)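 Lung cancer cell lines in 1536-well plates were dosed by pin tool the day after seeding, either with one drug alone or with a fixed anchor-drug dose plus five library-drug doses (not always all listed) in √10 steps. After 5 days, cells were fixed and their nuclei stained in one step (final 0.05% Triton X-100, 1% formaldehyde, 1 ug/ml Hoechst), then counted on 4× images. Relative viability is the nuclei count in treated wells divided by that in vehicle wells. Values are medians of duplicate plates.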

Linifanib + Vorinostat = compound: Cc1ccc(F)c(NC(=O)Nc2ccc(-c3cccc4[nH]nc(N)c34)cc2)c1 [Linifanib] + O=C(CCCCCCC(=O)Nc1ccccc1)NO [Vorinostat] (partner 1 µM)
Summary of the method: as §1

Linifanib + Dasatinib = compound: Cc1ccc(F)c(NC(=O)Nc2ccc(-c3cccc4[nH]nc(N)c34)cc2)c1 [Linifanib] + Cc1nc(Nc2ncc(C(=O)Nc3c(C)cccc3Cl)s2)cc(N2CCN(CCO)CC2)n1 [Dasatinib] (partner 0.075 µM)
Summary of the method: as §1

Linifanib + OSI-027 = compound: Cc1ccc(F)c(NC(=O)Nc2ccc(-c3cccc4[nH]nc(N)c34)cc2)c1 [Linifanib] + COc1cccc2cc(-c3nc([C@H]4CC[C@H](C(=O)O)CC4)n4ncnc(N)c34)[nH]c12 [OSI-027] (partner 0.5 µM)
Summary of the method: as §1

Linifanib + Decitabine = compound: Cc1ccc(F)c(NC(=O)Nc2ccc(-c3cccc4[nH]nc(N)c34)cc2)c1 [Linifanib] + Nc1ncn([C@H]2C[C@H](O)[C@@H](CO)O2)c(=O)n1 [Decitabine] (partner 2 µM)
Summary of the method: as §1

Linifanib + Lapatinib = compound: Cc1ccc(F)c(NC(=O)Nc2ccc(-c3cccc4[nH]nc(N)c34)cc2)c1 [Linifanib] + CS(=O)(=O)CCNCc1ccc(-c2ccc3ncnc(Nc4ccc(OCc5cccc(F)c5)c(Cl)c4)c3c2)o1 [Lapatinib] (partner 2 µM)
Summary of the method: as §1

Cell Line	relative viability (Linifanib + Trametinib; first compound 0.03162 µM)	relative viability (Linifanib + Trametinib; first compound 0.1 µM)	relative viability (Linifanib + Trametinib; first compound 0.3162 µM)	relative viability (Linifanib + Vorinostat; first compound 0.03162 µM)	relative viability (Linifanib + Vorinostat; first compound 0.1 µM)	relative viability (Linifanib + Vorinostat; first compound 0.3162 µM)	relative viability (Linifanib + Dasatinib; first compound 0.03162 µM)	relative viability (Linifanib + Dasatinib; first compound 0.1 µM)	relative viability (Linifanib + Dasatinib; first compound 0.3162 µM)	relative viability (Linifanib + OSI-027; first compound 0.03162 µM)	relative viability (Linifanib + OSI-027; first compound 0.1 µM)	relative viability (Linifanib + OSI-027; first compound 0.3162 µM)	relative viability (Linifanib + Decitabine; first compound 0.03162 µM)	relative viability (Linifanib + Decitabine; first compound 0.1 µM)	relative viability (Linifanib + Decitabine; first compound 0.3162 µM)	relative viability (Linifanib + Lapatinib; first compound 0.03162 µM)	relative viability (Linifanib + Lapatinib; first compound 0.1 µM)	relative viability (Linifanib + Lapatinib; first compound 0.3162 µM)
HOP-62	0.412	0.439	0.355	0.803	0.643	0.604	0.672	0.702	0.701	0.982	0.874	0.767	0.194	0.197	0.2	1.02	0.739	1.02
LC-2-ad	0.87	0.924	0.824	0.83	0.7	0.73	0.618	0.871	0.489	0.722	0.951	0.855	0.759	0.799	0.836	1.06	1.04	0.883
LCLC-97TM1	0.2	0.179	0.16	0.739	0.807	0.603	0.887	1.04	0.678	0.718	0.624	0.563	0.222	0.228	0.249	1.51	0.984	0.858
LCLC-103H	0.721	0.669	0.64	0.848	0.764	0.734	0.434	0.621	0.399	0.514	0.481	0.408	0.75	0.667	0.696			
LK-2	0.707	0.769	0.742	0.286	0.529	0.283	0.308	0.349	0.403	0.212	0.21	0.261	0.305	0.365	0.224	0.931	1.06	0.915
LOU-NH91	0.775	0.798	0.762	0.969	0.975	0.943	0.61	0.612	0.558	0.697	0.796	0.709	0.812	0.785	0.814	0.772	0.828	0.747
LU99A	0.558	0.582	0.587	0.497	0.43	0.505	0.547	0.66	0.488	0.323	0.326	0.338	0.932	1.02	0.824	1.07	1.06	1.05
LXF-289	0.749	0.695	0.624	0.85	0.762	0.807	0.29	0.288	0.236	0.905	0.829	0.774	0.376	0.355	0.326	0.914	0.936	0.831
NCI-H23	0.399	0.487	0.396	0.771	0.688	0.566	0.736	0.928	0.84	0.577	0.75	0.572	0.355	0.308	0.343	0.991	1.14	1.01

Reference: the supplement of paper PMC10307832
